Key:
Type in all cases: in vivo
[1] = tested on: chamomile, mayweed (Anthemis cotula L.); assay: Field weed control by penoxsulam plus florasulam, ANTCO; conditions: 30-45 DAA
Description: (§1) Field trials were conducted in olive tree crops in Spain using standard herbicide small plot research methodology. Plot size was typical for small plot research in tree crops, varying from 4 to 10 meters (m) wide by 4 to 10 m long. […] Soil types ranged from coarse to medium to fine soil texture. Perennial olive crops were transplanted by hand into orchards as per normal local cultural practices. The olive crop was grown using normal cultural practices for fertilization, watering and maintenance to ensure good growth of the crop and the weeds.
(§2) Treatments were applied by backpack sprayer using either compressed air or CO2, at spray pressures at 300 kilopascals (kPa). Spray tips were typically Flat Fan Teejet nozzles, such as FanJet 120 or Teejet 11003 VP. Spray volumes were approximately 300 liters per hectare (L/ha). The weed spectrum included, but was not limited to, chamomile, (Anthemis cotula L., […]), field marigold (Calendula arvensis, CLDAR), henbit (Lamium amplexicaule L, LAMAM), annual sowthistle (Sonchus oleraceus L., SONOL), common mallow (Malva neglecta Wallr., MALNE), corn salad (Valerianella echinata, VLLEC), horseweed (Conyza canadensis (L.) Cronq., ERICA), field madder (Sherardia arvensis L., SHRAR), and sowthistle (Sonchus species, SONSS). Treatments were applied preemergence or early postemergence to the stage of the weeds. Olive tree spacings were typically rows that were 7 to 8 m apart, and trees in the row were from 4 to 6 m apart.
(§3) For each treatment, the appropriate formulated product amount to treat the plot area, to achieve the desired application rate, based on unit area of application (hectare), was calculated, measured, and mixed in water prior to applying with the backpack sprayer
(§4) Treatments were rated as compared to the untreated control plots.
(§5) The treated plots and control plots were rated blind at various intervals after application. Ratings were based of Percent (%) Visual weed control, where 0 corresponds to no injury and 100 corresponds to complete kill.
(§6) The following equation was used to calculate the expected activity of mixtures containing two active ingredients, A and B: Expected=A+B−(A×B/100)
(§7) A=observed efficacy of active ingredient A at the same concentration as used in the mixture;
(§8) B=observed efficacy of active ingredient B at the same concentration as used in the mixture.

[2] = tested on: henbit (Lamium amplexicaule L.); assay: Field weed control by penoxsulam plus florasulam, LAMAM; conditions: 30-45 DAA
Description: as §1, §2, §3, §4, §5, §6, §7, §8

[3] = tested on: sowthistle (Sonchus species); assay: Field weed control by penoxsulam plus florasulam, SONSS; conditions: 99-175 DAA
Description: as §1
(§9) Treatments were applied by backpack sprayer using either compressed air or CO2, at spray pressures at 300 kilopascals (kPa). Spray tips were typically Flat Fan Teejet nozzles, such as FanJet 120 or Teejet 11003 VP. Spray volumes were approximately 300 liters per hectare (L/ha). […]
(§10) For each treatment, the appropriate formulated product amount to treat the plot area, to achieve the desired application rate, based on unit area of application (hectare), was calculated, measured, and mixed in water prior to applying with the backpack sprayer […]

[4] = tested on: field marigold (Calendula arvensis); assay: Field weed control by penoxsulam plus florasulam, CLDAR; conditions: 30-45 DAA
Description: as §1, §9, §10

[5] = tested on: annual sowthistle (Sonchus oleraceus L.); assay: Field weed control by penoxsulam plus florasulam, SONOL; conditions: 30-45 DAA
Description: as §1, §2, §3, §4, §5, §6, §7, §8

[6] = tested on: horseweed (Conyza canadensis (L.) Cronq.); assay: Field weed control by penoxsulam plus florasulam, ERICA; conditions: 99-175 DAA
Description: as §1, §9, §10

[7] = tested on: common mallow (Malva neglecta Wallr.); assay: Field weed control by penoxsulam plus florasulam, MALNE; conditions: 90 DAA
Description: as §1, §9, §10

[8] = tested on: field madder (Sherardia arvensis L.); assay: Field weed control by penoxsulam plus florasulam, SHRAR; conditions: 99-175 DAA
Description: as §1, §9, §10

[9] = tested on: corn salad (Valerianella echinata); assay: Field weed control by penoxsulam plus florasulam, VLLEC; conditions: 90 DAA
Description: as §1, §2, §3, §4, §5, §6, §7, §8

## COc1ncc(F)c2nc(S(=O)(=O)Nc3c(F)cccc3F)nn12 [Florasulam, N-(2,6-difluorophenyl)-8-fluoro-5-methoxy[1,2,4]-triazolo[1,5-c]pyrimidine-2-sulfonamide]
[1]; florasulam 5 gai/ha
  % Control ANTCO Obs: 50%
[1]; florasulam 6.3 gai/ha
  % Control ANTCO Obs: 69%
[1]; florasulam 7.5 gai/ha
  % Control ANTCO Obs: 95%
[2]; florasulam 5 gai/ha
  % Control LAMAM Obs: 5%
[2]; florasulam 6.3 gai/ha
  % Control LAMAM Obs: 30%
[2]; florasulam 7.5 gai/ha
  % Control LAMAM Obs: 30%
[3]; florasulam 7.5 gai/ha
  % Control SONSS Obs: 8%
[4]; florasulam 5 gai/ha
  % Control CLDAR Obs: 40%
[5]; florasulam 5 gai/ha
  % Control SONOL Obs: 50%
[5]; florasulam 6.3 gai/ha
  % Control SONOL Obs: 60%
[5]; florasulam 7.5 gai/ha
  % Control SONOL Obs: 60%
[6]; florasulam 7.5 gai/ha
  % Control ERICA Obs: 51%
[7]; florasulam 5 gai/ha
  % Control MALNE Obs: 50%
[8]; florasulam 7.5 gai/ha
  % Control SHRAR Obs: 0%
[9]; florasulam 5 gai/ha
  % Control VLLEC Obs: 10%
[9]; florasulam 6.3 gai/ha
  % Control VLLEC Obs: 10%

## COc1cnc(OC)n2nc(NS(=O)(=O)c3c(OCC(F)F)cccc3C(F)(F)F)nc12 [Penoxsulam]
[1]; penoxsulam 10 gai/ha
  % Control ANTCO Obs: 0%
[1]; penoxsulam 13 gai/ha
  % Control ANTCO Obs: 5%
[1]; penoxsulam 15 gai/ha
  % Control ANTCO Obs: 5%
[2]; penoxsulam 10 gai/ha
  % Control LAMAM Obs: 0%
[2]; penoxsulam 13 gai/ha
  % Control LAMAM Obs: 0%
[2]; penoxsulam 15 gai/ha
  % Control LAMAM Obs: 4%
[3]; penoxsulam 20 gai/ha
  % Control SONSS Obs: 53%
[4]; penoxsulam 10 gai/ha
  % Control CLDAR Obs: 5%
[5]; penoxsulam 10 gai/ha
  % Control SONOL Obs: 0%
[5]; penoxsulam 13 gai/ha
  % Control SONOL Obs: 2%
[5]; penoxsulam 15 gai/ha
  % Control SONOL Obs: 5%
[6]; penoxsulam 20 gai/ha
  % Control ERICA Obs: 23%
[7]; penoxsulam 10 gai/ha
  % Control MALNE Obs: 8%
[8]; penoxsulam 20 gai/ha
  % Control SHRAR Obs: 0%
[9]; penoxsulam 10 gai/ha
  % Control VLLEC Obs: 80%
[9]; penoxsulam 13 gai/ha
  % Control VLLEC Obs: 80%

From patent publication US8680010B2, “Synergistic herbicidal composition containing penoxsulam and florasulam” (Dow AgroSciences, LLC., priority 2011, dated 2014)
